Data taken from the kinase profiling compilation of Christmann-Franck et al. (2016).
One block for each compound: values may come before it.

Experiments:
Assay in all cases: KINOMEscan competition binding
Conditions in all cases: compound 10.0 µM
[1] = molecular target: CAMK4 (human) (UniProt Q16566)
[2] = molecular target: PLK1 (human) (UniProt P53350)
[3] = molecular target: RET (human) (UniProt P07949)
[4] = tested on: ABL1 (human), P00519 [Q252H]
[5] = molecular target: MAPK6 (human) (UniProt Q16659)
[6] = molecular target: PRKG1 (human) (UniProt Q13976)
[7] = molecular target: CDK3 (human) (UniProt Q00526)
[8] = molecular target: BMPR2 (human) (UniProt Q13873)
[9] = molecular target: ZAP70 (human) (UniProt P43403)
[10] = molecular target: EPHB3 (human) (UniProt P54753)
[11] = molecular target: TXK (human) (UniProt P42681)
[12] = molecular target: MAPK3 (human) (UniProt P27361)
[13] = molecular target: RIPK1 (human) (UniProt Q13546)
[14] = molecular target: AXL (human) (UniProt P30530)
[15] = molecular target: ADCK4 (human) (UniProt Q96D53)
[16] = tested on: ABL1 (human), P00519 [F317I]
[17] = molecular target: TNNI3K (human) (UniProt Q59H18)
[18] = molecular target: IRAK3 (human) (UniProt Q9Y616)
[19] = molecular target: PTK6 (human) (UniProt Q13882)
[20] = molecular target: MARK1 (human) (UniProt Q9P0L2)
[21] = molecular target: MAPK10 (human) (UniProt P53779)
[22] = molecular target: INSR (human) (UniProt P06213)
[23] = molecular target: MAPK1 (human) (UniProt P28482)
[24] = molecular target: CHEK2 (human) (UniProt O96017)
[25] = molecular target: MAP2K6 (human) (UniProt P52564)
[26] = tested on: ABL1 (human), P00519 [E255K]
[27] = molecular target: LIMK1 (human) (UniProt P53667)
[28] = molecular target: MARK3 (human) (UniProt P27448)
[29] = molecular target: TSSK1B (human) (UniProt Q9BXA7)
[30] = molecular target: PIK3CB (human) (UniProt P42338)
[31] = molecular target: MYO3B (human) (UniProt Q8WXR4)
[32] = molecular target: NEK7 (human) (UniProt Q8TDX7)
[33] = molecular target: LCK (human) (UniProt P06239)
[34] = molecular target: MAPK12 (human) (UniProt P53778)
[35] = molecular target: FYN (human) (UniProt P06241)
[36] = tested on: ABL1 (human), P00519 [F317L]
[37] = molecular target: FGFR1 (human) (UniProt P11362)
[38] = molecular target: PRKACB (human) (UniProt P22694)
[39] = molecular target: PAK3 (human) (UniProt O75914)
[40] = molecular target: ADCK3 (human) (UniProt Q8NI60)
[41] = molecular target: NTRK1 (human) (UniProt P04629)
[42] = molecular target: CDK11A (human) (UniProt Q9UQ88)
[43] = molecular target: ACVR1B (human) (UniProt P36896)

Sequence of MAP2K6 (human) (P52564 whole entry, looked up): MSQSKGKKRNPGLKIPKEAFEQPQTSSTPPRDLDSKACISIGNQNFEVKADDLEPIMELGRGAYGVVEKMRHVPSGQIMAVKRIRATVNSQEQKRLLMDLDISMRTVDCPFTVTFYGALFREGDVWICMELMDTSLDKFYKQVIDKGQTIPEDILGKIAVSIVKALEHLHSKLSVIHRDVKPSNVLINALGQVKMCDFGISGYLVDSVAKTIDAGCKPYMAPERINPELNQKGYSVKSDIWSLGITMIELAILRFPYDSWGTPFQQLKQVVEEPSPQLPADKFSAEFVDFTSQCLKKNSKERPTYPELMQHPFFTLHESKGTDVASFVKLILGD
Sequence of EPHB3 (human) (P54753 whole entry, looked up): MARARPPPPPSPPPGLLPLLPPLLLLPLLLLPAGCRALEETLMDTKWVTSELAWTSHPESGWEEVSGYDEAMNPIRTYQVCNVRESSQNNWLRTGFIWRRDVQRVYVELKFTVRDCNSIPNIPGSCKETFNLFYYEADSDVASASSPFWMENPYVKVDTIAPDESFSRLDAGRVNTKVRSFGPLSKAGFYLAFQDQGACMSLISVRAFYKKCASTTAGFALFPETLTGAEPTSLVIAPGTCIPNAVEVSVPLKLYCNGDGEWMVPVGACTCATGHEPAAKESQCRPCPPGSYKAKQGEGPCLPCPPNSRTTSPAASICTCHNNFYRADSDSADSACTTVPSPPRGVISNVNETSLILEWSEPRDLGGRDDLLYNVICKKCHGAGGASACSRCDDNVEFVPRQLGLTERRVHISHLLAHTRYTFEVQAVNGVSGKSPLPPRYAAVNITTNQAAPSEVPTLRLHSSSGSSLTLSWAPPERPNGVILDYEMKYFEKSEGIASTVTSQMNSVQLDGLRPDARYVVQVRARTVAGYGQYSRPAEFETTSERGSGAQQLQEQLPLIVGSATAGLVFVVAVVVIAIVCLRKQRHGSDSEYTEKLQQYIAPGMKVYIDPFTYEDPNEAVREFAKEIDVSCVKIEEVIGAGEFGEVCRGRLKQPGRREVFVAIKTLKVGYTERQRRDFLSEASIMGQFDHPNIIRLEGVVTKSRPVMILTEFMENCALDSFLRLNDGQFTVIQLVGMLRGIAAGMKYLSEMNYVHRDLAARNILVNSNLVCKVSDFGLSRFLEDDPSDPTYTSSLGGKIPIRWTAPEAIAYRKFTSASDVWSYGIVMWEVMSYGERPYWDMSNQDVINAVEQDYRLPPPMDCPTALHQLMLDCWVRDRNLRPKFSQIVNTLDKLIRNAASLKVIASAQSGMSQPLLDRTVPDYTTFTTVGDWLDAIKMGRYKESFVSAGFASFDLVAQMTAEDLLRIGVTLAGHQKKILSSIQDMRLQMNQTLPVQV
Sequence of MAPK6 (human) (Q16659 whole entry, looked up): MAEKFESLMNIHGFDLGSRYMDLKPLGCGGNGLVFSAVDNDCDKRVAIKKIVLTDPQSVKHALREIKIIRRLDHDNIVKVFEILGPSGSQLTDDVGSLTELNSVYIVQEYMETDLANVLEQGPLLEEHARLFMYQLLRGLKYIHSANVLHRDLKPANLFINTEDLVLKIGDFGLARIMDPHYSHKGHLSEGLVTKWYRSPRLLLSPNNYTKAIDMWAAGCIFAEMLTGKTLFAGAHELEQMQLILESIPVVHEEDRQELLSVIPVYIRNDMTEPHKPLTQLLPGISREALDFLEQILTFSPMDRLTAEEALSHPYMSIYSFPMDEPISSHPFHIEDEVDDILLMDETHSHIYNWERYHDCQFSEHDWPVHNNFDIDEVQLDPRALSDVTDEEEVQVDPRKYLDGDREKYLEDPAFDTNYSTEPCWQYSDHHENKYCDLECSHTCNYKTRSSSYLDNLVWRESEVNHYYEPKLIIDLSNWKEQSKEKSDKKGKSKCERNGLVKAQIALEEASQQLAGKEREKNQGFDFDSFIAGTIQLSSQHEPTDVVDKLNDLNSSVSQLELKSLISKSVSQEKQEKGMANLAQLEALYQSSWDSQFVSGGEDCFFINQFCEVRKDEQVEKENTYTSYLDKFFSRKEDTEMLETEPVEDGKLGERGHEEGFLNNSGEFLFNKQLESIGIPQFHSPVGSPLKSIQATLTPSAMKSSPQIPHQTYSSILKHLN
Sequence of CDK3 (human) (Q00526 whole entry, looked up): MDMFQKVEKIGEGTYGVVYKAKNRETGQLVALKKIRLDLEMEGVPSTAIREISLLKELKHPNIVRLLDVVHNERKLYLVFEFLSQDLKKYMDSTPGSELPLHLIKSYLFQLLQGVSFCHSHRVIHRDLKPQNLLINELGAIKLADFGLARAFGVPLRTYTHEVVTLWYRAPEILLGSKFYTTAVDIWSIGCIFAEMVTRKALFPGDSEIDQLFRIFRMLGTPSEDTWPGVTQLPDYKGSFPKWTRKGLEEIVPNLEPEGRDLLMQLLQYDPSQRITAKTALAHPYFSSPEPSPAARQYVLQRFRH
Sequence of PLK1 (human) (P53350 whole entry, looked up): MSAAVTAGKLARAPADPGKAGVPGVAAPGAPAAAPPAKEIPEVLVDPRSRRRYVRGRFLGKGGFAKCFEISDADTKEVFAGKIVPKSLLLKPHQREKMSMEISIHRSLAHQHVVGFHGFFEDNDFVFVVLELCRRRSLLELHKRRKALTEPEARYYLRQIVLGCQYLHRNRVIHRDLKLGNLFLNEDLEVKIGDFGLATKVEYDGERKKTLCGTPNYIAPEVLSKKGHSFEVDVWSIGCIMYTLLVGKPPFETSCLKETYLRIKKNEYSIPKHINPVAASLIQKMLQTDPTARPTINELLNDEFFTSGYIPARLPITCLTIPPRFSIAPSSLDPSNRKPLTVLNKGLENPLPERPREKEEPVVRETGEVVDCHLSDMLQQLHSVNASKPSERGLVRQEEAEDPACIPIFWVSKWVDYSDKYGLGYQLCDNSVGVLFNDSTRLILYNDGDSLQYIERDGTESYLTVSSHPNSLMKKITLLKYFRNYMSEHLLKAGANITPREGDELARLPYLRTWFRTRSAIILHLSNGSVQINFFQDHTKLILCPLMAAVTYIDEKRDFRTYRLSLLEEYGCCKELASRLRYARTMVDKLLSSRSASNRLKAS
Sequence of TSSK1B (human) (Q9BXA7 whole entry, looked up): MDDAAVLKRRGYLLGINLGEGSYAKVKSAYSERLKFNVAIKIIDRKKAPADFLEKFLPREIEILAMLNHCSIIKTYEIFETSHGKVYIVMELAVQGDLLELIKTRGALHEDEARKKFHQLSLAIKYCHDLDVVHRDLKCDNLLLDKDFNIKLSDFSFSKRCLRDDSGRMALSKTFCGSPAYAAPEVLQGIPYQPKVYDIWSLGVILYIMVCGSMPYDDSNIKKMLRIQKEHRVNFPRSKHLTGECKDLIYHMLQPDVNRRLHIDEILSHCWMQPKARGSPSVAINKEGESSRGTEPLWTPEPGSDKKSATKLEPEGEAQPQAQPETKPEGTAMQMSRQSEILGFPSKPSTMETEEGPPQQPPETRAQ
Sequence of TXK (human) (P42681 whole entry, looked up): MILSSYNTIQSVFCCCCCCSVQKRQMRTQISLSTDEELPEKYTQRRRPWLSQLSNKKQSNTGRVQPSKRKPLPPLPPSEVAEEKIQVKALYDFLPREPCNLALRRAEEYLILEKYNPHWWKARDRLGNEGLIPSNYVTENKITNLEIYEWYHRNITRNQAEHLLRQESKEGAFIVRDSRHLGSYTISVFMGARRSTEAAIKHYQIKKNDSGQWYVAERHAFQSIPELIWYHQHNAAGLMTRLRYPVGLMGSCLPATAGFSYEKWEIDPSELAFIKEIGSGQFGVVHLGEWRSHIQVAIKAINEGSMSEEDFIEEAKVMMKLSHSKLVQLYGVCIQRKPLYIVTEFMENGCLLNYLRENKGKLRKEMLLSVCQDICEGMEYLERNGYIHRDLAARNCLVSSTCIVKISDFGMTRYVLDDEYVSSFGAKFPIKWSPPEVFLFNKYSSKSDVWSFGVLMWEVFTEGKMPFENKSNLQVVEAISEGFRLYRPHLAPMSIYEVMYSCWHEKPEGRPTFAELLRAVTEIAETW
Sequence of PTK6 (human) (Q13882 whole entry, looked up): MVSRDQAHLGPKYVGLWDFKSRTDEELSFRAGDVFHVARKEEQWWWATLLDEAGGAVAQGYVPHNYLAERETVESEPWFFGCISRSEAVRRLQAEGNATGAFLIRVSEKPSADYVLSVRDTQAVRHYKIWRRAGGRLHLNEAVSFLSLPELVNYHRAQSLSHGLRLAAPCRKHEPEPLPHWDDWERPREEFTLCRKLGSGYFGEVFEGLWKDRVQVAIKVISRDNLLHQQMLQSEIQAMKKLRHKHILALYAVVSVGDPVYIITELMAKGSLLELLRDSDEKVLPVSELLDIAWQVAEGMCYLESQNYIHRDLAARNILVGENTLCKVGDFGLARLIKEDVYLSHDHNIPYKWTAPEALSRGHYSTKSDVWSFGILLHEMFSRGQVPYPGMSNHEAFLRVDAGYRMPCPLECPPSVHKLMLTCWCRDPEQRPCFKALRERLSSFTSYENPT
Sequence of MAPK3 (human) (P27361 whole entry, looked up): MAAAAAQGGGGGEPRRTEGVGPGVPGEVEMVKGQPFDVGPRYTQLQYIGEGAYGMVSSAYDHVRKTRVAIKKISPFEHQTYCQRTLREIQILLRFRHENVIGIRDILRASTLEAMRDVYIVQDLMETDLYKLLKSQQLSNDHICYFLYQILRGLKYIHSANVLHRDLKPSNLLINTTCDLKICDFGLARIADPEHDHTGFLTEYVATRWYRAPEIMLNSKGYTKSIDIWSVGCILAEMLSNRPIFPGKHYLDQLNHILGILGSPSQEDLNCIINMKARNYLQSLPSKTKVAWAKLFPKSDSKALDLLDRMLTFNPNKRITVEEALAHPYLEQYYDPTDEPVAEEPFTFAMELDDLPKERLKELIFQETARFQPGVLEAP
Sequence of NEK7 (human) (Q8TDX7 whole entry, looked up): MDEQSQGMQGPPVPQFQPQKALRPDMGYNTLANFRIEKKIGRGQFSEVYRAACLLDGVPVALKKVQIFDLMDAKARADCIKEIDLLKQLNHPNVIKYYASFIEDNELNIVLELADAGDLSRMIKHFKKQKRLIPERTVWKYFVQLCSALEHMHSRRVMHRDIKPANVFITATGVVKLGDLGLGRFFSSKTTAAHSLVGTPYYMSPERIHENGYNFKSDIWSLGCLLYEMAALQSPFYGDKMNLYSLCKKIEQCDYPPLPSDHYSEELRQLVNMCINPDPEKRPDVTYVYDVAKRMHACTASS

kinase still bound, per cent of control [1]: 80%
kinase still bound, per cent of control [2]: 2.5%
kinase still bound, per cent of control [3]: 85%
kinase still bound, per cent of control [4]: 90%
kinase still bound, per cent of control [5]: 61%
kinase still bound, per cent of control [6]: 100%
kinase still bound, per cent of control [7]: 100%
kinase still bound, per cent of control [8]: 100%
kinase still bound, per cent of control [9]: 74%
kinase still bound, per cent of control [10]: 93%
kinase still bound, per cent of control [11]: 72%
kinase still bound, per cent of control [12]: 95%
kinase still bound, per cent of control [13]: 100%
kinase still bound, per cent of control [14]: 75%
kinase still bound, per cent of control [15]: 78%
kinase still bound, per cent of control [16]: 6.6%
kinase still bound, per cent of control [17]: 84%
kinase still bound, per cent of control [18]: 77%
kinase still bound, per cent of control [19]: 56%
kinase still bound, per cent of control [20]: 64%
kinase still bound, per cent of control [21]: 70%
kinase still bound, per cent of control [22]: 100%
kinase still bound, per cent of control [23]: 83%
kinase still bound, per cent of control [24]: 77%
kinase still bound, per cent of control [25]: 100%
kinase still bound, per cent of control [26]: 85%
kinase still bound, per cent of control [27]: 100%
kinase still bound, per cent of control [28]: 91%
kinase still bound, per cent of control [29]: 38%
kinase still bound, per cent of control [30]: 90%
kinase still bound, per cent of control [31]: 52%
kinase still bound, per cent of control [32]: 93%
kinase still bound, per cent of control [33]: 100%
kinase still bound, per cent of control [34]: 76%
kinase still bound, per cent of control [35]: 86%
kinase still bound, per cent of control [36]: 1.8%
kinase still bound, per cent of control [37]: 100%
kinase still bound, per cent of control [38]: 100%
kinase still bound, per cent of control [39]: 100%
kinase still bound, per cent of control [40]: 100%
kinase still bound, per cent of control [41]: 60%
kinase still bound, per cent of control [42]: 95%
kinase still bound, per cent of control [43]: 86%
Structure (SMILES): COc1cc(N2CCN(C)CC2)ccc1Nc1ncc2c(n1)N(C)c1sccc1C(=O)N2C

kinase still bound, per cent of control [1]: 100%
kinase still bound, per cent of control [2]: 100%
kinase still bound, per cent of control [3]: 100%
kinase still bound, per cent of control [4]: 82%
kinase still bound, per cent of control [5]: 78%
kinase still bound, per cent of control [6]: 100%
kinase still bound, per cent of control [7]: 100%
kinase still bound, per cent of control [8]: 100%
kinase still bound, per cent of control [9]: 100%
kinase still bound, per cent of control [10]: 100%
kinase still bound, per cent of control [11]: 96%
kinase still bound, per cent of control [12]: 100%
kinase still bound, per cent of control [13]: 100%
kinase still bound, per cent of control [14]: 100%
kinase still bound, per cent of control [15]: 91%
kinase still bound, per cent of control [16]: 100%
kinase still bound, per cent of control [17]: 100%
kinase still bound, per cent of control [18]: 100%
kinase still bound, per cent of control [19]: 100%
kinase still bound, per cent of control [20]: 100%
kinase still bound, per cent of control [21]: 100%
kinase still bound, per cent of control [22]: 95%
kinase still bound, per cent of control [23]: 100%
kinase still bound, per cent of control [24]: 100%
kinase still bound, per cent of control [25]: 100%
kinase still bound, per cent of control [26]: 100%
kinase still bound, per cent of control [27]: 100%
kinase still bound, per cent of control [28]: 100%
kinase still bound, per cent of control [29]: 100%
kinase still bound, per cent of control [30]: 100%
kinase still bound, per cent of control [31]: 74%
kinase still bound, per cent of control [32]: 89%
kinase still bound, per cent of control [33]: 100%
kinase still bound, per cent of control [34]: 100%
kinase still bound, per cent of control [35]: 100%
kinase still bound, per cent of control [36]: 100%
kinase still bound, per cent of control [37]: 100%
kinase still bound, per cent of control [38]: 100%
kinase still bound, per cent of control [39]: 76%
kinase still bound, per cent of control [40]: 99%
kinase still bound, per cent of control [41]: 77%
kinase still bound, per cent of control [42]: 99%
kinase still bound, per cent of control [43]: 100%
Structure (SMILES): CN1C(=O)c2ccccc2N(C)c2nc(NS(=O)(=O)c3ccc(N)cc3)ncc21
